System: rabbit knee joint cartilage primary culture cells
Test: Proteoglycan degradation/release in rabbit knee joint cartilage primary culture cells (35S label)
Assay type: cell-based
Settings: compound added just before stimulation with 10 μM of all-trans retinoic acid; for IC50: Oryctolagus cuniculus, read-out: proteoglycan degradation inhibition action (IC50)
Procedure: After killing a rabbit (Japanese white species, male, 1.0 to 1.5 kg) under excess anesthesia, a knee joint was excised and the cartilage layer on the joint surface was removed and finely cut using a surgical knife. The cut pieces were treated with trypsin-EDTA (0.25%-1 mM; mfd. by GIBCO-BRL) at 37° C. for 1 hour and then centrifuged at 1,500 rpm for 5 minutes, and the resulting precipitate was washed with DMEM. This was treated with collagenase A (0.15%; Boehringer-Mannheim)/DMEM at 37° C. for 3 to 4 hours, and then a nylon mesh filter (100 μm, mfd. by Falcon)-passed fraction was centrifuged at 1,500 rpm for 5 minutes to effect precipitation of cartilage cells. The cells were thoroughly washed with DMEM/10% FBS medium, suspended in DMEM/10% FBS medium to a density of 2×10^5 cells/ml and then inoculated in 200 μl/well portions into an I type collagen-coated 96 well plate (mfd. by Asahi Technoglass). Three days thereafter, the medium was changed to 200 μof DMEM/10% FBS medium containing 50 μg/ml of ascorbic acid (ascorbic acid medium hereinafter), and the culturing was continued for 3 days. When an I type collagen-coated 6 well plate (Asahi Technoglass) was used, the cell suspension was inoculated in 6 ml/well portions and cultured by carrying out the same medium exchange. These cells were used in the following test.
The rabbit knee joint cartilage primary culture cells of 96 well plate described in Example 11-1 were cultured for 2 days using 200 μl of the ascorbic acid medium supplemented with 10 μCi/ml in final concentration of Na2^35SO4 and labeled therewith, washed 3 times with 200 μl of the ascorbic acid medium and then cultured for 1 day using 200 μl of the ascorbic acid medium. After stimulation with IL-1β or all-trans retinoic acid and subsequent 0, 24, and 48 hours of culturing, the culture supernatants were recovered in 20 μl portions, and the radioactivity was measured using Top Count (mfd. by Packard).
Each of the compounds A, B, C and D selected by the screening system of Example 10-2 was added to the proteoglycan degradation system of rabbit knee joint cartilage primary culture cells just before the stimulation with 10 μM of all-trans retinoic acid, and their proteoglycan degradation inhibitory activities were examined.

Q: Which IC50 does the source give for `CNC(=O)[C@H](Cc1ccc(OC)cc1)NC(=O)C(CC(C)C)C(CSc1ccccc1)C(=O)NO` (stereo partly drawn) [compound C, N^α-[2-(1-hydroxycarbamoyl-2-phenylsulfanylethyl)-4-methylpentanoyl]-N,O-dimethyltyrosineamide] here?
A: 6.3 µM

Q: How did the “inhibition of proteoglycan degradation (in words, FIG. 8)” value turn out when `CNC(=O)C(Cc1ccc(OC)cc1)NC(=O)C(CC(C)C)C(CS)C(=O)NO` (stereo not drawn) [compound A, N-^α-[2-(1-hydroxycarbamoyl-2-sulfanylethyl)-4-methylpentanoyl]-N,O-dimethyltyrosineamide] was run?
A: inhibition of proteoglycan degradation in a concentration-dependent manner

Q: With `CNC(=O)[C@H](Cc1ccc(OC)cc1)NC(=O)C(CC(C)C)C(CSC)C(=O)NO` (stereo partly drawn) [compound D, N^α-[2-(1-hydroxycarbamoyl-2-methylsulfanylethyl)-4-methylpentanoyl]-N,O-dimethyltyrosineamide] as the compound, how does the IC50 read?
A: 4.1 µM
